The results in this text go back to patent US7919077B2, “Pharmaceutical compositions comprising CCL2 and use of same for the treatment of inflammation” (Yeda Research and Development Co. Ltd., priority 2006, dated 2011).

For one experiment, the system named is ERK½. In words: ERK detection (phospho-ERK western blot) in naïve T cells. The format is cell-based, mice. The settings on record: naïve T cells pre-treated with CCL2 30 minutes, CCL21 for 30 or 60 seconds; FIG. 3. On the procedure: Stimulation of T cells—Cell stimulation was performed as previously described [Flaishon et al., J Biol Chem. (2001) 276:46701-46706]. Briefly, 1×10^7 T cells were suspended in 1 ml DMEM cell medium containing 10% (v/v) Fetal Calf Serum (FCS). Next, 0.1 ng/ml CCL2 (CytoLab) was added to each tube and the tubes were immediately placed in 37° C. for 30 minutes. Immediately after stimulation, cells were washed and handled as described hereinbelow.
Preparation of cell extract—Stimulated cells were lysed in lysis buffer containing: 25 mM Tris, pH 7.4; 2 mM Vanadate; 75 mM glycophosphate, pH 7.2; 2 mM EDTA; 2 mM EGTA; 10 mM NaPPi; and 0.5% NP-40, in the presence of the following protease inhibitors: 10 mg/ml Leupeptin; 10 mg/ml aprotinin; 10 mg/ml pepstatin; 10 mg/ml chymostatin (Roche); 1 mM PMSF (Sigma); and 20 mM N-etheyl-melamide (Sigma).
ERK detection—Cell lysates were separated on a 10% (wt/vol) SDS-PAGE. Proteins were electro-transferred to nitrocellulose membranes and reacted with anti-phospho-specific extracellular signal-regulated kinase (ERK) 1 or 2 (a kind gift from Dr Rony Seger, Weizmann Institute, Rehovot, Israel) followed by peroxidase-labeled goat anti-mouse (Jackson Labs), or reacted with polyclonal anti-Tubulin (Santa Cruz) followed by peroxidase anti-rabbit (Jackson Labs).
(In western blotting, separated proteins are transferred to a membrane and probed.)

The nature of experiment [1]: OVA sensitization and challenge mouse asthma model. It counts as in vivo, BALB/c mice. The settings on record: OVA-challenged mice. On the procedure: Ovalbumin (OVA) sensitization, challenge and treatment with CCL2—OVA sensitization and challenge were effected following a previously described protocol [Flaishon, L., et al., J. Immunol: Cutting edge 168: 3707 (2002)], BALB/c mice (average: 9 mice/group) were sensitized for OVA by intraperitoneal injections with 100 μg of chicken egg ovalbumin (OVA; Sigma-Aldrich, St. Louis, Mo.) mixed with 2 mg of aluminum hydroxide (Pierce, Rockford, Ill.) in 300 μl PBS (control group mice were injected with PSB alone). Injections were given on day 0, 7, and 14. 15 days after initial sensitization, and following, animals were challenged daily for 5 days (days 15-19) by inhaling 4% OVA in PBS, administered by an ultrasonic nebulizer (DeVilbiss, Somersel, Pa.) for 20 minutes, while the control group was challenged with PBS alone.
One of the groups injected and challenged by OVA was additionally injected i.p. with 300 μl PBS from the first day of OVA inhalation (day 15), for 5 days 20 minutes before each inhalation, and another group was additionally injected with murine CCL2 (60 ng CCL2 per animal per day). PBS-treated control group was PBS challenged and PBS injected. On day 18, 2 hours following inhalation, mice were anesthetized by an i.p. injection of 0.2 ml Ketamine/xylazine, and airway hyper-responsiveness (AHR) was determined by calculating the enhanced respiratory pause (Penh), a function of the ratio of peak expiratory flow to peak inspiratory flow and a function of the timing of expiration, measured in a plethysmographic box during expiration. Delta Penh was calculated by subtracting control Penh measurements, before antigen challenge, from the Penh measurements after antigen challenge. […] On day 19 the mice were sacrificed 2 hours after the last inhalation.
Lung histology—Lungs from mice participating in the OVA sensitization and challenge assay were inflated with 1 ml of 10% formalin until distended. Samples for paraffin sectioning were immersed in 10% formalin and fixed for 48 hours. The tissues were then embedded in paraffin and 2-3 micrometer sections were prepared. […]

The subject of another experiment is effector T cells. Put plainly: Transwell migration of effector T cells (data not shown). The format is cell-based, mice. Conditions: low dose CCL2.
For experiment [2], the system named is human T cells interacting with VCAM-1 (VLA-4). Put plainly: Laminar flow adhesion assay on VCAM-1 with co-immobilized CCL21. It counts as cell-based. Conditions: low dose chemokine pretreatment. On the procedure: Laminar flow adhesion assays—Purified VCAM-1 or ICAM-1-Fc (both from R&D Systems, Minneapolis, Minn.) were coated with or without CCL21 (R&D Systems) on polystyrene plates as previously described [Grabovsky et al., J Exp Med. (2000) 192:495-506; Sigal et al., J Immunol. (2000) 165:442-452]. The polystyrene plates were each assembled on the lower wall of the flow chamber as previously described [Feigelson et al., J Biol Chem. (2001) 276:13891-13901]. All flow experiments were conducted at 37° C. Cells were washed with cation-free H/H medium, resuspended in binding medium (H/H medium supplemented with 1 mM CaCl2 and 1 mM MgCl2) and perfused through the flow chamber at low shear stress (0.5-0.75 dyn/cm^2) for 2 minutes. Tethers were defined as transient or rolling if cells attached briefly (<2 seconds) to the substrate and as arrests if immediately arrested and remaining stationary for at least 5 seconds of continuous flow. Frequencies of adhesive categories within differently pretreated cells were determined as a percentage of cells flowing immediately over the substrates, as previously described [Grabovsky et al., supra]. To assess resistance to detachment over time, accumulated cells were subjected to a shear stress of 5 dyn/cm^2 for 5 minutes. At the indicated time points, the number of cells that remained bound was expressed relative to T cell population originally accumulated in the first 2 minute period of the assay. Over 90% of cellular tethers to VCAM-1 or ICAM-1 were blocked by pretreating cells with VLA-4 or LFA-1 blockers respectively.

For the substance “CCL2: mammalian (e.g., human) CCL2 protein, GenBank NM_002982 / NP_002973; murine CCL2 used in the asthma model”, the “CCL21-induced phosphorylation of ERK½” value in the experiment on ERK½ is “inhibited”. In addition, the “peribronchial and perivascular inflammatory infiltrate (inflammatory score 1-4)” value in experiment [1] (CCL2 60 ng per day i.p., FIG. 8e) is reported as “significantly reduced”. Besides, the “histological changes in the lungs” value in experiment [1] (CCL2 60 ng per day i.p., FIG. 8d) is recorded as “barely detectable”. Moreover, the “airway responsiveness (delta Penh) to antigen challenge” value in experiment [1] (murine CCL2 60 ng per animal per day i.p. for 5 days, FIG. 8a) is given as “no airway hyperactivity was observed”. Moreover, in the experiment with effector T cells, the “CCL21 induced transwell migration of effector cells” value is on record as “down-regulated” and the “CXCL12 induced transwell migration of effector cells” value is on record as “down-regulated”. In addition, in experiment [2] (high shear stress 5 dyn/cm^2, FIG. 6d), the “post arrest adhesion strengthening on VCAM-1 (resistance to detachment)” value is “failed to develop adhesion strengthening”. Also, the “VLA-4 activation by surface bound CCL21 (arrest on VCAM-1)” value in experiment [2] (shear stress 0.75 dyn/cm^2, FIG. 6c) was “did not interfere”.
